From ChEMBL document CHEMBL4507262, “Data for DCP probe A-1596586” (2021)

Legend:
[1] = biological target: Adenosine receptor A1 (Homo sapiens) (UniProt P30542); assay: A1 (h) Eurofins-Cerep binding assay; design: ligand concentration 1 nM; settings: filed as antagonist, Compound concentration 10.0 uM
[2] = biological target: T1, Alpha-1B adrenergic receptor (Homo sapiens) (UniProt P35368); assay: Alpha1B (h) Eurofins-Cerep binding assay; settings: filed as antagonist, Compound concentration 10.0 uM
T1 sequence (whole entry): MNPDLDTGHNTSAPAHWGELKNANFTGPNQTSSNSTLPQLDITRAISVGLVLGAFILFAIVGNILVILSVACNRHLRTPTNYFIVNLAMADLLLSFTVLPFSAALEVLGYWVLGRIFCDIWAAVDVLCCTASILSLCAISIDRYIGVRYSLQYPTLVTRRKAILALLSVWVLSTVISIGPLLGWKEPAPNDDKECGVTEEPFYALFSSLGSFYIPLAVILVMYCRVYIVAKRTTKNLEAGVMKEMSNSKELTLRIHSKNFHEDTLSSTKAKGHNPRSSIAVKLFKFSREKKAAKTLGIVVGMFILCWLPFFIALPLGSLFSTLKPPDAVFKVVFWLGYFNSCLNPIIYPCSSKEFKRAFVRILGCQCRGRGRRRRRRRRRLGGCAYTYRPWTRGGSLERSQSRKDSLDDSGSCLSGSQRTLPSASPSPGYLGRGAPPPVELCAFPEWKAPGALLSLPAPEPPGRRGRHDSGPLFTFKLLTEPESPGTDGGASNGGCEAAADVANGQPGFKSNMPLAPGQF

[3] = biological target: GABA-A receptor; anion channel (Rattus norvegicus) (UniProt O09028+P15431+P18506+P18508+P19969+P20236+P23574+P23576+P28471+P28473+P30191+P62813+P63079+P63138+Q91ZM7+Q9ES14); assay: BZD (central) Eurofins-Cerep binding assay; format: protein-complex assay; design: ligand concentration 0.4 nM; settings: filed as agonist, Compound concentration 10.0 uM
[4] = biological target: B2 bradykinin receptor (Homo sapiens) (UniProt P30411); assay: B2 (h) Eurofins-Cerep binding assay; design: ligand concentration 0.3 nM; settings: filed as agonist, Compound concentration 10.0 uM
Chain of B2 bradykinin receptor (Homo sapiens) (P30411 whole entry): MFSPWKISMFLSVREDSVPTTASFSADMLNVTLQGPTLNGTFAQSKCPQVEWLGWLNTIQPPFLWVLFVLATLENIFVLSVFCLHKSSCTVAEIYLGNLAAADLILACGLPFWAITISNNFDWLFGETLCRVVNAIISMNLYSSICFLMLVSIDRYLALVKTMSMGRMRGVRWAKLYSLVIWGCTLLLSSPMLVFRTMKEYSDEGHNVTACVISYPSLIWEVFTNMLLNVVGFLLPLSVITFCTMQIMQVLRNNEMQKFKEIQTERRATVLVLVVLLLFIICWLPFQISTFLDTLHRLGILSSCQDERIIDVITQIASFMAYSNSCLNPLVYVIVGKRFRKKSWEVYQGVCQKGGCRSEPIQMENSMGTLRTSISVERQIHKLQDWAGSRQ

[5] = biological target: Glutamate NMDA receptor (Rattus norvegicus) (UniProt P35439+Q00959+Q00960+Q00961+Q62645+Q8VHN2+Q9R1M7); assay: NMDA Eurofins-Cerep binding assay; format: protein-complex assay; design: ligand concentration 5 nM; settings: filed as antagonist, Compound concentration 10.0 uM
[6] = biological target: Muscarinic acetylcholine receptor M1 (Homo sapiens) (UniProt P11229); assay: M1 (h) Eurofins-Cerep binding assay; design: ligand concentration 2 nM; settings: filed as antagonist, Compound concentration 10.0 uM
Chain of Muscarinic acetylcholine receptor M1 (Homo sapiens) (P11229 whole entry): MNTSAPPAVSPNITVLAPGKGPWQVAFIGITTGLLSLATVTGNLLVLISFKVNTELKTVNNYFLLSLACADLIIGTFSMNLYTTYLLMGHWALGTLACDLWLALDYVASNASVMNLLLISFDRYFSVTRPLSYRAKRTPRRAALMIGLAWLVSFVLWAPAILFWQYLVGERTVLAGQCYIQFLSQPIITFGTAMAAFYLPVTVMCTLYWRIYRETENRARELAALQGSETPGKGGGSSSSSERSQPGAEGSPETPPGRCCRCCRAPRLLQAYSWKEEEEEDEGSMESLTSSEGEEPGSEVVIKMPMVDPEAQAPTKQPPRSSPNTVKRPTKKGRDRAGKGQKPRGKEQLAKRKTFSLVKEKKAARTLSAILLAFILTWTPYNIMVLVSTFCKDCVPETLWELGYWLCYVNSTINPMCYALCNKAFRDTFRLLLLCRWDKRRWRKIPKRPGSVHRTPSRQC

[7] = biological target: Delta-type opioid receptor (Homo sapiens) (UniProt P41143); assay: delta (DOP) (h) Eurofins-Cerep binding assay; design: ligand concentration 0.5 nM; settings: filed as agonist, Compound concentration 10.0 uM
Chain of Delta-type opioid receptor (Homo sapiens) (P41143 whole entry): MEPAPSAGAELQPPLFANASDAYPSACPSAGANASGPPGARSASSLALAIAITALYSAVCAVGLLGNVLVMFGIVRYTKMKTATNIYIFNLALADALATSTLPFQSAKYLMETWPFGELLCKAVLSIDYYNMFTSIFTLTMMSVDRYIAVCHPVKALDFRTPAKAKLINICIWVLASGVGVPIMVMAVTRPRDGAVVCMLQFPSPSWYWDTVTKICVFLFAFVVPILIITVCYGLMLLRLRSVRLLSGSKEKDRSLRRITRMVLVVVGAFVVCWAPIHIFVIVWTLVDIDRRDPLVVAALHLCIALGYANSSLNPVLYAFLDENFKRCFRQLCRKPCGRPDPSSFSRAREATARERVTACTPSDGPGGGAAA

[8] = biological target: Sigma non-opioid intracellular receptor 1 (Homo sapiens, UniProt Q99720); assay: sigma (non-selective) (h) Eurofins-Cerep binding assay; design: ligand concentration 10 nM; settings: filed as agonist, Compound concentration 10.0 uM
[9] = system: Tyrosine-protein kinase ABL1 (Homo sapiens), P00519 [F317I]; settings: Compound concentration 1000.0 nM
Chain of Tyrosine-protein kinase ABL1 (Homo sapiens), P00519 [F317I] (P00519 whole entry F317I): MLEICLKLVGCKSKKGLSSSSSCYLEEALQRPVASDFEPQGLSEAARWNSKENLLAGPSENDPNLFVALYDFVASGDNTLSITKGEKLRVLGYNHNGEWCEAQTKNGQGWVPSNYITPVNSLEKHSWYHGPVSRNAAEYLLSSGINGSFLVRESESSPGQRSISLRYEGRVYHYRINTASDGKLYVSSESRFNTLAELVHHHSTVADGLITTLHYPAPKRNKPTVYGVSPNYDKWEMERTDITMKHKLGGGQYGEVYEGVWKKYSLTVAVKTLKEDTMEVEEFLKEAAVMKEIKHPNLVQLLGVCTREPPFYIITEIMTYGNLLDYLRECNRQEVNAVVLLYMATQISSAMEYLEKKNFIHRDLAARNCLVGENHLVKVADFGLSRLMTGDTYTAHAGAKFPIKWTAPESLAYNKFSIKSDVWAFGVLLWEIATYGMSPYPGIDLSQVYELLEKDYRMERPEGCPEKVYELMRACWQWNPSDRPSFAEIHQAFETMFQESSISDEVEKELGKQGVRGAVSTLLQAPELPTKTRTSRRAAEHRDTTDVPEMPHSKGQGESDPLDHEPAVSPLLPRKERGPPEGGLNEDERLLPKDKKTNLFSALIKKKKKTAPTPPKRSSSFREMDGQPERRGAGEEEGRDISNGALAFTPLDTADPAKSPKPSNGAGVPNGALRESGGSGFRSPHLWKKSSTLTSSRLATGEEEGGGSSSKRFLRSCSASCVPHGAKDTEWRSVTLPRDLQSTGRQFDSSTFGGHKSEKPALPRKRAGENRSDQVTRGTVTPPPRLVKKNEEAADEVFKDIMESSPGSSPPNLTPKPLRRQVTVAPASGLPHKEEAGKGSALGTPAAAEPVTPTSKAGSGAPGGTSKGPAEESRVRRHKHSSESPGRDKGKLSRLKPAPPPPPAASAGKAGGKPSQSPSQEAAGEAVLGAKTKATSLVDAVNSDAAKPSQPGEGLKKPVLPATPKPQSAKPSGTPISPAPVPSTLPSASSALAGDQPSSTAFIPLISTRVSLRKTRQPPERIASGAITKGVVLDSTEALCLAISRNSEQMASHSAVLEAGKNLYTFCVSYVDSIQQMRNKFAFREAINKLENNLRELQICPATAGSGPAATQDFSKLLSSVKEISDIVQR

[10] = biological target: Atypical kinase COQ8B, mitochondrial (Homo sapiens) (UniProt Q96D53); settings: Compound concentration 1000.0 nM
[11] = system: ALK tyrosine kinase receptor (Homo sapiens), Q9UM73 [C1156Y]; settings: Compound concentration 1000.0 nM
[12] = biological target: Bone morphogenetic protein receptor type-2 (Homo sapiens) (UniProt Q13873); settings: Compound concentration 1000.0 nM
[13] = biological target: Peripheral plasma membrane protein CASK (Homo sapiens) (UniProt O14936); settings: Compound concentration 1000.0 nM
[14] = biological target: Cyclin-dependent kinase 13 (Homo sapiens) (UniProt Q14004); settings: Compound concentration 1000.0 nM
[15] = biological target: Cyclin-dependent kinase-like 1 (Homo sapiens) (UniProt Q00532); settings: Compound concentration 1000.0 nM
[16] = biological target: Dual specificity protein kinase CLK4 (Homo sapiens) (UniProt Q9HAZ1); settings: Compound concentration 1000.0 nM
[17] = biological target: Epithelial discoidin domain-containing receptor 1 (Homo sapiens) (UniProt Q08345); settings: Compound concentration 1000.0 nM
[18] = biological target: Serine/threonine-protein kinase 17A (Homo sapiens) (UniProt Q9UEE5); settings: Compound concentration 1000.0 nM
[19] = biological target: Epidermal growth factor receptor (Homo sapiens) (UniProt P00533); settings: Compound concentration 1000.0 nM
[20] = system: Epidermal growth factor receptor (Homo sapiens), P00533 [L858R]; settings: Compound concentration 1000.0 nM
[21] = biological target: Fibroblast growth factor receptor 3 (Homo sapiens) (UniProt P22607); settings: Compound concentration 1000.0 nM
Chain of Fibroblast growth factor receptor 3 (Homo sapiens) (P22607 23-806 limits assumed): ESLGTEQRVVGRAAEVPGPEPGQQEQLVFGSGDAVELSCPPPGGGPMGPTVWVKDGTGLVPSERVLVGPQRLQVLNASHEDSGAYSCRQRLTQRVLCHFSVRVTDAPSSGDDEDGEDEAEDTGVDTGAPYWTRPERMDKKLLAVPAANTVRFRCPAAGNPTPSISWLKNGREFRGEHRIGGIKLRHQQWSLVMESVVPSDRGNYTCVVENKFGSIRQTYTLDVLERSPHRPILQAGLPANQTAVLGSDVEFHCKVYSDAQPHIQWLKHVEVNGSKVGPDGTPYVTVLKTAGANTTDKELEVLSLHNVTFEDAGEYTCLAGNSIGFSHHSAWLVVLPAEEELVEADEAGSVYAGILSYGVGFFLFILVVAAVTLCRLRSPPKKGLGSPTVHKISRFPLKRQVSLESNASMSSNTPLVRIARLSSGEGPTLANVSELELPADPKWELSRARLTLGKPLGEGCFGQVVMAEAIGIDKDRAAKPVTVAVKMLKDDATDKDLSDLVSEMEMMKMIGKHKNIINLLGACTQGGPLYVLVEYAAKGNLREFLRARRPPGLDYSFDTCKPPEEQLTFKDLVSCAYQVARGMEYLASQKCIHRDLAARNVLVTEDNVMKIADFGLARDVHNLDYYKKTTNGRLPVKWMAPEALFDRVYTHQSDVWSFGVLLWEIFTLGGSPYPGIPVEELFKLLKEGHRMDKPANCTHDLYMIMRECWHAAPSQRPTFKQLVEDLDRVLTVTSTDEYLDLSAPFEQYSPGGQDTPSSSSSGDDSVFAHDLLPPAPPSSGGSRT

[22] = biological target: Vascular endothelial growth factor receptor 1 (Homo sapiens) (UniProt P17948); settings: Compound concentration 1000.0 nM
[23] = biological target: Serine/threonine-protein kinase 10 (Homo sapiens) (UniProt O94804); settings: Compound concentration 1000.0 nM
[24] = biological target: MAP/microtubule affinity-regulating kinase 3 (Homo sapiens) (UniProt P27448); settings: Compound concentration 1000.0 nM
[25] = biological target: Hepatocyte growth factor receptor (Homo sapiens) (UniProt P08581); settings: Compound concentration 1000.0 nM
[26] = biological target: Serine/threonine-protein kinase PAK 6 (Homo sapiens) (UniProt Q9NQU5); settings: Compound concentration 1000.0 nM
Chain of Serine/threonine-protein kinase PAK 6 (Homo sapiens) (Q9NQU5 whole entry, looked up): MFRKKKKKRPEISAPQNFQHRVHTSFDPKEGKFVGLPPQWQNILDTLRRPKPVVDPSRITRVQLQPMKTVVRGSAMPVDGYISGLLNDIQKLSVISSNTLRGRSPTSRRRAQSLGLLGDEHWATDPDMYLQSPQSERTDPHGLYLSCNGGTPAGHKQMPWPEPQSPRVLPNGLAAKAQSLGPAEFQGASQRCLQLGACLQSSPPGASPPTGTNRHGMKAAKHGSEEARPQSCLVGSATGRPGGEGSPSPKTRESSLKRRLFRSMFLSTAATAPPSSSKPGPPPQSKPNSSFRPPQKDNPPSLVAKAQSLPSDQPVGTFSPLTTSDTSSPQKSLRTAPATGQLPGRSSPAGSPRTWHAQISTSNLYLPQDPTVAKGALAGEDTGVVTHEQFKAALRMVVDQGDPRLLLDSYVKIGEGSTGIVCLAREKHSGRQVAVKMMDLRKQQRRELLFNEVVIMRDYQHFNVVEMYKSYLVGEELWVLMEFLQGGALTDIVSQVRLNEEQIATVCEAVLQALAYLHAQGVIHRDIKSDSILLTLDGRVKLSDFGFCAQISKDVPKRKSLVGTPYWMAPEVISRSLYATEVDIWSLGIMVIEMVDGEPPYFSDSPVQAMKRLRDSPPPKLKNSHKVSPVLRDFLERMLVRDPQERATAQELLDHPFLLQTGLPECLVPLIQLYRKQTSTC

[27] = biological target: Phosphatidylinositol 5-phosphate 4-kinase type-2 gamma (Homo sapiens) (UniProt Q8TBX8); settings: Compound concentration 1000.0 nM
Chain of Phosphatidylinositol 5-phosphate 4-kinase type-2 gamma (Homo sapiens) (Q8TBX8 whole entry): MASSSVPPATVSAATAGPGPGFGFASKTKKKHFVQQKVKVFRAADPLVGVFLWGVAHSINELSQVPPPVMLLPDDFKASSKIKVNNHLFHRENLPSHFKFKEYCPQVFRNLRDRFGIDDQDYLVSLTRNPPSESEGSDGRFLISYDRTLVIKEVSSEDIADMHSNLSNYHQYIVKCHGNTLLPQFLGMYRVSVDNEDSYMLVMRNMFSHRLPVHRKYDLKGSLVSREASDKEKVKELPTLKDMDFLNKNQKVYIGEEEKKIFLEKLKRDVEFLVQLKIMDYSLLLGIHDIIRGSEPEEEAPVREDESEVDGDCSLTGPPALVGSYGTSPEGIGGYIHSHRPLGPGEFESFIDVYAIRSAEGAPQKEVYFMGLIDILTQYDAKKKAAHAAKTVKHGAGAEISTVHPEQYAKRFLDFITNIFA

[28] = biological target: Serine/threonine-protein kinase N1 (Homo sapiens) (UniProt Q16512); settings: Compound concentration 1000.0 nM
[29] = biological target: Serine/threonine-protein kinase RIO3 (Homo sapiens) (UniProt O14730); settings: Compound concentration 1000.0 nM
[30] = biological target: Dual serine/threonine and tyrosine protein kinase (Homo sapiens) (UniProt Q6XUX3); settings: Compound concentration 1000.0 nM
[31] = biological target: Ribosomal protein S6 kinase alpha-5 (Homo sapiens) (UniProt O75582); settings: Compound concentration 1000.0 nM
Chain of Ribosomal protein S6 kinase alpha-5 (Homo sapiens) (O75582 whole entry, looked up): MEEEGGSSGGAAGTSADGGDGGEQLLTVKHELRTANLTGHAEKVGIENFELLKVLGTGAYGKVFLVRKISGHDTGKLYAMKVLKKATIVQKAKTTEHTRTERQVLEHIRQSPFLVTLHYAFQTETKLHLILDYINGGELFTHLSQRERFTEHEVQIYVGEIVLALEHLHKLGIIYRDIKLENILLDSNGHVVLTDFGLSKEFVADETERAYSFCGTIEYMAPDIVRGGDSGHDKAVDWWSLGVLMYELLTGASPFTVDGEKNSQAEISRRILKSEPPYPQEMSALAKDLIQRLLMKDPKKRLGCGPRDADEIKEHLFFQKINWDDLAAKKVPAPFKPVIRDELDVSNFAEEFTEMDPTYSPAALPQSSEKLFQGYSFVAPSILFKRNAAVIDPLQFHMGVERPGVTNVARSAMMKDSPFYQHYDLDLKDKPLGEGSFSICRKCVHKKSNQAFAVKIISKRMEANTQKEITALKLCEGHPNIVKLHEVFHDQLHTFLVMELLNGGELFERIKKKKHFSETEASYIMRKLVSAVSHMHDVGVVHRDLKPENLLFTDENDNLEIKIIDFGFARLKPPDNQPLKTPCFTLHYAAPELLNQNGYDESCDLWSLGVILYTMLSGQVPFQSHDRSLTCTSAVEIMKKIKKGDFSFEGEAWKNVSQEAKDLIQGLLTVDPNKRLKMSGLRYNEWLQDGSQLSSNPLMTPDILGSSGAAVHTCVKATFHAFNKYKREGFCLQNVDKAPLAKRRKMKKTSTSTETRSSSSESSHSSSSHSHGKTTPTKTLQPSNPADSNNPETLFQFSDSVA

[32] = biological target: TGF-beta receptor type-1 (Homo sapiens) (UniProt P36897); settings: Compound concentration 1000.0 nM
[33] = biological target: Tyrosine-protein kinase receptor Tie-1 (Homo sapiens) (UniProt P35590); settings: Compound concentration 1000.0 nM
[34] = biological target: Phosphatidylinositol 3-kinase catalytic subunit type 3 (Homo sapiens) (UniProt Q8NEB9); settings: Compound concentration 1000.0 nM
[35] = biological target: 5-hydroxytryptamine receptor 2A (Homo sapiens) (UniProt P28223); settings: Compound concentration 10.0 uM
[36] = biological target: Alpha-2C adrenergic receptor (Homo sapiens) (UniProt P18825); settings: Compound concentration 10.0 uM
[37] = biological target: Muscarinic acetylcholine receptor M3 (Homo sapiens) (UniProt P20309); settings: Compound concentration 10.0 uM

SMILES | % Inhibition of Control Specific Binding (Mean n=2) [1] [%] | % Inhibition of Control Specific Binding (Mean n=2) [2] [%] | % Inhibition of Control Specific Binding (Mean n=2) [3] [%] | % Inhibition of Control Specific Binding (Mean n=2) [4] [%] | % Inhibition of Control Specific Binding (Mean n=2) [5] [%] | % Inhibition of Control Specific Binding (Mean n=2) [6] [%] | % Inhibition of Control Specific Binding (Mean n=2) [7] [%] | % Inhibition of Control Specific Binding (Mean n=2) [8] [%] | residual activity [9] [%] | residual activity [10] [%] | residual activity [11] [%] | residual activity [12] [%] | residual activity [13] [%] | residual activity [14] [%] | residual activity [15] [%] | residual activity [16] [%] | residual activity [17] [%] | residual activity [18] [%] | residual activity [19] [%] | residual activity [20] [%] | also measured
COc1ccc2c(c1)O[C@H](c1ccc(OC)c(OC)c1)C[C@@H]2NC(=O)C1(c2ccc3c(c2)OC(F)(F)O3)CC1 [A-1596584] | 11.5 | 17.4 | -49.6 | -8.3 | 1.3 | -28 | 2.2 | 33.1 | 100 | 63 | 100 | 92 | 85 | 100 | 83 | 92 | 100 | 100 | 92 | 100 | residual activity [21]: 100%; residual activity [22]: 100%; residual activity [23]: 100%; residual activity [24]: 95%; residual activity [25]: 87%; residual activity [26]: 100%; residual activity [27]: 83%; residual activity [28]: 100%; residual activity [29]: 100%; residual activity [30]: 94%; residual activity [31]: 91%; residual activity [32]: 100%; residual activity [33]: 100%; residual activity [34]: 88%; inhibition [35]: 7.46%; inhibition [36]: 10.1%; inhibition [37]: 2.35%
COc1ccc2c(c1)O[C@@H](c1ccc(OC)c(OC)c1)C[C@H]2NC(=O)C1(c2ccc3c(c2)OC(F)(F)O3)CC1 [A-1596586] | 14.3 | 4.8 | -12.3 | -13.5 | 8.7 | -20.6 | 8.8 | 35.1 | 78 | 100 | 84 | 68 | 100 | 98 | 82 | 100 | 100 | 100 | 96 | 97 | residual activity [21]: 89%; residual activity [22]: 100%; residual activity [23]: 88%; residual activity [24]: 100%; residual activity [25]: 100%; residual activity [26]: 79%; residual activity [27]: 83%; residual activity [28]: 96%; residual activity [29]: 100%; residual activity [30]: 76%; residual activity [31]: 100%; residual activity [32]: 100%; residual activity [33]: 100%; residual activity [34]: 78%; inhibition [35]: 8.84%; inhibition [36]: 15.8%; inhibition [37]: 1.13%
